We go through 31 compounds from US7786137B2, “Bicyclic derivatives as modulators of ion channels” (Vertex Pharmaceuticals Incorporated, priority 2005, dated 2010).

Sequence of NaV1.6 (Q9UQD0 whole entry, looked up): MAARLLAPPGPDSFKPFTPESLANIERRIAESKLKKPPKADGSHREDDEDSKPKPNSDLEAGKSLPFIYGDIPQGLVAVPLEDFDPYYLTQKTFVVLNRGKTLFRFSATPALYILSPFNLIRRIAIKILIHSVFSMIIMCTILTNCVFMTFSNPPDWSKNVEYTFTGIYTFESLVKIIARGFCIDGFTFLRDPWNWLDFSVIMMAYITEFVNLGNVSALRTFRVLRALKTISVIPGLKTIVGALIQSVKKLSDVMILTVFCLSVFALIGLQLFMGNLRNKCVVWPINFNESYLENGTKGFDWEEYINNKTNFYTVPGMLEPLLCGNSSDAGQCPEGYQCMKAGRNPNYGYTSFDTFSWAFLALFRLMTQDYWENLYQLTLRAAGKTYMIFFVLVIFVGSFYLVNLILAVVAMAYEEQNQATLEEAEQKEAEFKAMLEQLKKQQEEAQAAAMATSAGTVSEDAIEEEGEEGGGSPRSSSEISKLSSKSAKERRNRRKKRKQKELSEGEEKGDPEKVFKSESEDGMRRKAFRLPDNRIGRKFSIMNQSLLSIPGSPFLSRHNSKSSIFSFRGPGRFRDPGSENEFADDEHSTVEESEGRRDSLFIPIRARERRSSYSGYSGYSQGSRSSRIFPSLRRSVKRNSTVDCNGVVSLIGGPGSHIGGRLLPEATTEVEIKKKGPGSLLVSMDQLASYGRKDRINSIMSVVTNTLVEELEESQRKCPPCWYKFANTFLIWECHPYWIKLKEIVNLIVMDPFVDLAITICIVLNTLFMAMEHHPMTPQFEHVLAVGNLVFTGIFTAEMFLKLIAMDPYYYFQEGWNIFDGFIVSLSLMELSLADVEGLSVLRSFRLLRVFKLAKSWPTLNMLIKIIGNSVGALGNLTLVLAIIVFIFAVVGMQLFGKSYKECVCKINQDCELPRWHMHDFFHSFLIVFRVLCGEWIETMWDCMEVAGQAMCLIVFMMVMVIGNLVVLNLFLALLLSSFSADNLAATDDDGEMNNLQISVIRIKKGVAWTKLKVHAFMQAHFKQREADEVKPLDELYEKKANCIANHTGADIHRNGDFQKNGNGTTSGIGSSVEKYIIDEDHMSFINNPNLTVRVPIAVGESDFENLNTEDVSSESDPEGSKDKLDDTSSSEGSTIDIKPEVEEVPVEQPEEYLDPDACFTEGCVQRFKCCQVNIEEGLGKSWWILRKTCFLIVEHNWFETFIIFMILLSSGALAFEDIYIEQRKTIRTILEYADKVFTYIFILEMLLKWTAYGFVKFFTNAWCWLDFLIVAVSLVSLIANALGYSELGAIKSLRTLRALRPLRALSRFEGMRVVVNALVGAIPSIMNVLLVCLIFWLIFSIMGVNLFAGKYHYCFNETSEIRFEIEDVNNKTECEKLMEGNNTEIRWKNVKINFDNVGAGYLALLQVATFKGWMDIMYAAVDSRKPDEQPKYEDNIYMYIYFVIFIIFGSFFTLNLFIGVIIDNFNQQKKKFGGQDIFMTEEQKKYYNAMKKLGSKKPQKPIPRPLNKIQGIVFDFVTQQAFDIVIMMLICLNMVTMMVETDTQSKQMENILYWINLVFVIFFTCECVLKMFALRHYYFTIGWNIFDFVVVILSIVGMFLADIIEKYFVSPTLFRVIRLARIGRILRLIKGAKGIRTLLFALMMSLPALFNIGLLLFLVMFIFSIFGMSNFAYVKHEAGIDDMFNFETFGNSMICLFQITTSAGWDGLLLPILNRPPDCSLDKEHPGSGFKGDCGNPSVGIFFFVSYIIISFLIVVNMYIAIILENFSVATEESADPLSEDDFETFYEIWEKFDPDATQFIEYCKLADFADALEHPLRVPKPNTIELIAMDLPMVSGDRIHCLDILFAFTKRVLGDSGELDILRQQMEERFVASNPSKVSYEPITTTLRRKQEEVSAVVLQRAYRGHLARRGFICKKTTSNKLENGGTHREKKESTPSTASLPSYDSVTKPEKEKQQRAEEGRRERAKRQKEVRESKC

The target in the first assay is T1, NaV1.3 (Homo sapiens, UniProt Q9NY46).
Assay: not given
The note with it: read-out: TTX IC50; cited from earlier work.
Target sequence in this assay (Q9NY46 whole entry, looked up): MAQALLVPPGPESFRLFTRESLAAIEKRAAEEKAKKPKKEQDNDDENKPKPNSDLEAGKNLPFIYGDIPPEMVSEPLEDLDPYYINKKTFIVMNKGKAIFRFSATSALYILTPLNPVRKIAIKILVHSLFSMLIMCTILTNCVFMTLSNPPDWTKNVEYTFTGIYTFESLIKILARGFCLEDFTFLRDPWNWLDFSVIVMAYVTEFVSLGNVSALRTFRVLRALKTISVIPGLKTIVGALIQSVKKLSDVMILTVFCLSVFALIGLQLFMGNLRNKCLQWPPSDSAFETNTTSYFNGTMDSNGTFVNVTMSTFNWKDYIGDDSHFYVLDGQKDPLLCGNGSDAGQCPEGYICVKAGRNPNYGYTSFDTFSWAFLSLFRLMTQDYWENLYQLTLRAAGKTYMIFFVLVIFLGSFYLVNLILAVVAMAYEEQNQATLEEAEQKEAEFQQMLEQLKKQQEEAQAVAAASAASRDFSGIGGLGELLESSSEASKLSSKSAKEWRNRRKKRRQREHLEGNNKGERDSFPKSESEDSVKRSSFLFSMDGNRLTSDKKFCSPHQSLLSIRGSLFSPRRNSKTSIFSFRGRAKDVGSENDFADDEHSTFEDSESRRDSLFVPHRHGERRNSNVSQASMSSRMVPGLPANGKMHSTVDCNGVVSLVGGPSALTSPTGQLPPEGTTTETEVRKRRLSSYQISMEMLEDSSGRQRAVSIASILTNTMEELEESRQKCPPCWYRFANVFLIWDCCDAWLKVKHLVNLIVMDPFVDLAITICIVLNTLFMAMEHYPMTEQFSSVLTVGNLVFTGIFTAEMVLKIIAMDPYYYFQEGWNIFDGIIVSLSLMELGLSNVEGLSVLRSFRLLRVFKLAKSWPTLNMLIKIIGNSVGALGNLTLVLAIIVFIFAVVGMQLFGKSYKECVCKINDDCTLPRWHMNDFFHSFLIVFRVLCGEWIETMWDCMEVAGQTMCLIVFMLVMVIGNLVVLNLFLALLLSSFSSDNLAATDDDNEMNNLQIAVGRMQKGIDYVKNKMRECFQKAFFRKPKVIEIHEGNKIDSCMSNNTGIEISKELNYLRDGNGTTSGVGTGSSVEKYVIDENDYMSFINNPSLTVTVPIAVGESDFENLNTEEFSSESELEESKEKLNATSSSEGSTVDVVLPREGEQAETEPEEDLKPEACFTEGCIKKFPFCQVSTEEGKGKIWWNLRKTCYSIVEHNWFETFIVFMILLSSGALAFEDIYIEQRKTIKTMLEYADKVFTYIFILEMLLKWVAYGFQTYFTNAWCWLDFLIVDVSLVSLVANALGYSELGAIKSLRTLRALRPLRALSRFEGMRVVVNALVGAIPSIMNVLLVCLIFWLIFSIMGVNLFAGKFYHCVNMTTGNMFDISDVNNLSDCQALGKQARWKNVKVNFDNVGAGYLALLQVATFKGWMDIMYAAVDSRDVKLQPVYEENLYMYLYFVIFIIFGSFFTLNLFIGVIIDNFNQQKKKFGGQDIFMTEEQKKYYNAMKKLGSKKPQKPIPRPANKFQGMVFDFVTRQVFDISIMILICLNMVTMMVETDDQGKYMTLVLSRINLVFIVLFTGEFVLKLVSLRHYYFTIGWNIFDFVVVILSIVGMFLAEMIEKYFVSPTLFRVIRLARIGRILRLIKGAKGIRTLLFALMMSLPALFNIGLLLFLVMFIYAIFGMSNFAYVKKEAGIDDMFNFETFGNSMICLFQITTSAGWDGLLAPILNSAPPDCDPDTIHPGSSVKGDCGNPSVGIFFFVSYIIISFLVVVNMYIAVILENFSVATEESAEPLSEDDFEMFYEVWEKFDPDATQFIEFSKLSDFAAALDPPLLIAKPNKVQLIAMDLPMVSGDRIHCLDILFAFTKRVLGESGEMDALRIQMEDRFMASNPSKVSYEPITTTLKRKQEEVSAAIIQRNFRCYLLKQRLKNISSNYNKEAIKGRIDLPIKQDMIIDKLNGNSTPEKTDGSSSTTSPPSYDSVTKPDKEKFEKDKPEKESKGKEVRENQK
As to `NC1=N[C@H](O)[C@H]2[C@H]3O[C@]4(O)O[C@@H]([C@@H](O)[C@@]2(N1)[C@@H]4O)[C@]3(O)CO` [TTX, tetrodotoxin], the IC50 was 0.015 µM.

The next assay has as its target NaV1.6 (Homo sapiens, UniProt Q9UQD0).
Assay: not given
The note with it: read-out: TTX IC50; cited from earlier work.
Take `NC1=N[C@H](O)[C@H]2[C@H]3O[C@]4(O)O[C@@H]([C@@H](O)[C@@]2(N1)[C@@H]4O)[C@]3(O)CO` [TTX, tetrodotoxin]: the IC50 was 0.006 µM.

The next assay addresses NaV1.8 (Homo sapiens, UniProt Q9Y5Y9).
Assay: not given
The note with it: read-out: TTX IC50; cited from earlier work.
Consider `NC1=N[C@H](O)[C@H]2[C@H]3O[C@]4(O)O[C@@H]([C@@H](O)[C@@]2(N1)[C@@H]4O)[C@]3(O)CO` [TTX, tetrodotoxin], for which the IC50 is above 50 µM.

Another assay has as its target NaV1.9 (Homo sapiens, UniProt Q9UI33).
Assay: not given
The conditions noted are these: read-out: TTX IC50; cited from earlier work.
On to `NC1=N[C@H](O)[C@H]2[C@H]3O[C@]4(O)O[C@@H]([C@@H](O)[C@@]2(N1)[C@@H]4O)[C@]3(O)CO` [TTX, tetrodotoxin], for which the IC50 was 1 µM.

Test system in another assay: not given
Assay: not given
The note with it: neuropathic pain, modest efficacy; cited from earlier work.
Regarding `NCC1(CC(=O)O)CCCCC1` [Gabapentin], the “patients in whom it works” value is given as 60%.

The target in a further assay is NaV1.1 (Homo sapiens, UniProt P35498).
Assay: not given
The note with it: read-out: TTX IC50; cited from earlier work.
Consider `NC1=N[C@H](O)[C@H]2[C@H]3O[C@]4(O)O[C@@H]([C@@H](O)[C@@]2(N1)[C@@H]4O)[C@]3(O)CO` [TTX, tetrodotoxin], for which the IC50 was 0.01 µM.

A further assay deals with NaV1.2 (Homo sapiens, UniProt Q99250).
Assay: not given
The note with it: read-out: TTX IC50; cited from earlier work.
For `NC1=N[C@H](O)[C@H]2[C@H]3O[C@]4(O)O[C@@H]([C@@H](O)[C@@]2(N1)[C@@H]4O)[C@]3(O)CO` [TTX, tetrodotoxin], the IC50 was 0.01 µM.

A further assay addresses T1, NaV1.3. Briefly: VIPR optical membrane potential assay, NaV1.3 inhibition. The class given is cell-based. The note with it: activity against NaV 1.3 channel. Details: expressed in transfected cells; host or cells: HEK293.
Target sequence in this assay (Q9NY46 whole entry): as the sequence (Q9NY46 whole entry, looked up) above
Compound `O=C(CCCOc1ccc(Cl)cc1Cl)N1CCCc2cc(S(=O)(=O)Nc3nccs3)ccc21` [Compound 180] displayed an IC50 below 2 µM.

Consider `Cc1ccc(OCC(=O)N2CCc3cc(S(=O)(=O)Nc4nccs4)ccc32)cc1` [Compound 181], for which the IC50 was below 2 µM.

As for `O=C(COc1ccc(Cl)cc1Cl)n1ccc2cc(S(=O)(=O)Nc3nccs3)ccc21` [Compound 183], the IC50 lay in the range of 2 to 5 µM.

As to `COc1ccc(NCC(=O)N2CCc3cc(S(=O)(=O)Nc4nccs4)ccc32)cc1F` [Compound 184], the IC50 is above 5 µM.

For the compound `CC(Oc1ccccc1Cl)C(=O)N1CCc2cc(S(=O)(=O)Nc3ncns3)ccc21` (stereo not drawn) [Compound 185], the IC50 was below 2 µM.

For `CC(Oc1ccc(OC(F)(F)F)cc1)C(=O)N1Cc2ccc(S(=O)(=O)Nc3nccs3)cc2C1` (stereo not drawn) [Compound 186], the IC50 was below 2 µM.

Compound `COc1ccc(CCC(=O)n2ccc3cc(S(=O)(=O)Nc4nccs4)ccc32)cc1` [Compound 187] showed an IC50 below 2 µM.

On to `O=C(Cc1ccccc1)N1CCc2cc(S(=O)(=O)Nc3nccs3)ccc21` [Compound 188], for which the IC50 is below 2 µM.

The compound `O=C(CCc1ccccc1)n1ccc2cc(S(=O)(=O)Nc3nccs3)ccc21` [Compound 189] yielded an IC50 below 2 µM.

`Cc1ccc(OCC(=O)N2Cc3ccc(S(=O)(=O)Nc4nccs4)cc3C2)cc1C` [Compound 190]: the concentration for half-maximal inhibition (IC50) is below 2 µM.

For `Cc1ccc(C(=O)n2ccc3cc(S(=O)(=O)Nc4nccs4)ccc32)cc1Cl` [Compound 191], the IC50 was above 5 µM.

Regarding `COc1cccc(CCC(=O)N2CCc3cc(S(=O)(=O)Nc4nccs4)ccc32)c1` [Compound 192], the IC50 was below 2 µM.

In turn, `COc1ccc(CC(=O)N2Cc3ccc(S(=O)(=O)Nc4nccs4)cc3C2)cc1` [Compound 193] yielded an IC50 of 2 to 5 µM.

The compound `O=C(COc1ccnc2c(C(F)(F)F)cccc12)N1CCc2cc(S(=O)(=O)Nc3nccs3)ccc21` [Compound 194] gave an IC50 below 2 µM.

Take `Cc1ccc(F)c(C(=O)n2ccc3cc(S(=O)(=O)Nc4nccs4)ccc32)c1` [Compound 195]: the IC50 lay within 2 to 5 µM.

For the compound `O=C(Cc1ccc(F)cc1F)N1CCc2cc(S(=O)(=O)Nc3nccs3)ccc21` [Compound 196], the IC50 is below 2 µM.

On to `O=C(CCc1ccccc1)N1CCc2cc(S(=O)(=O)Nc3nccs3)ccc21` [Compound 197], for which the IC50 was below 2 µM.

The compound `O=C(CNc1cccc(F)c1)N1CCc2cc(S(=O)(=O)Nc3nccs3)ccc21` [Compound 198] registered an IC50 below 2 µM.

On to `O=C(COc1ccccc1)N1Cc2ccc(S(=O)(=O)Nc3nccs3)cc2C1` [Compound 199], for which the IC50 is below 2 µM.

As for `O=C(COc1ccc(F)c(Cl)c1)N1Cc2ccc(S(=O)(=O)Nc3ncns3)cc2C1` [Compound 200], the IC50 is below 2 µM.

Compound `CC(C(=O)n1ccc2cc(S(=O)(=O)Nc3nccs3)ccc21)n1ccc2ccccc21` (stereo not drawn) [Compound 201] gave an IC50 above 5 µM.

`C[C@H](C(=O)N1CCc2cc(S(=O)(=O)Nc3ncns3)ccc21)n1ccc2ccccc21` [Compound 202] came in with an IC50 below 2 µM.

In turn, `C[C@@H](C(=O)N1Cc2ccc(S(=O)(=O)Nc3ccncn3)cc2C1)n1ccc2c(F)cccc21` [Compound 203] came in with an IC50 above 5 µM.

Turning to `CC(C(=O)N1CCc2cc(S(=O)(=O)Nc3nccs3)ccc21)n1ccc2ccccc21` (stereo not drawn) [Compound 204], the IC50 is below 2 µM.

For `O=C(CN1CCCc2cc(Cl)ccc21)N1CCc2cc(S(=O)(=O)Nc3ncns3)ccc21` [Compound 205], the IC50 was below 2 µM.

For `CC(C)(C)c1ccc(OCC(=O)N2CCCc3cc(S(=O)(=O)Nc4nccs4)ccc32)cc1` [Compound 206], the IC50 is below 2 µM.

In turn, `C[C@H](C(=O)N1Cc2ccc(S(=O)(=O)Nc3ncns3)cc2C1)n1ccc2ccccc21` [Compound 207] displayed an IC50 below 2 µM.

Turning to `Cc1ccnc(NS(=O)(=O)c2ccc3c(c2)CCN3C(=O)CCCOc2ccc(Cl)cc2Cl)n1` [Compound 208], the 50% inhibitory concentration (IC50) is above 5 µM.

Regarding `O=C(CCn1ccc2cc(Cl)ccc21)N1CCc2cc(S(=O)(=O)Nc3nccs3)ccc21` [Compound 209], the IC50 was below 2 µM.

As a reminder, the IC50 is the midpoint of a concentration-inhibition curve.
